Measurements as given in patent US6538014B1, “Process for the aggrochemical treatment of rangelands” (Bayer CropScience, Inc., priority 1992, dated 2003).

Tests used:
Type in all cases: in vivo
Melanoplus sanguinipes = assay: Caged grassland treatment, mortality of grasshoppers; conditions: for Effectiveness (%) against the grasshopper Melanoplus Sanquinipes, Persistence of Action 7 DAT / Effectiveness (%) against the grasshopper Melanoplus Sanquinipes, Persistence of Action 15 DAT / Effectiveness (%) against the grasshopper Melanoplus Sanquinipes, Persistence of Action 28 DAT: infestation renewed 2 days before
Method: A zone of grassland is treated under controlled conditions, using cages to limit the space of movement of the insects. This zone is infested at a rate of 40 grasshoppers (Melanoplus sanguinipes) per m^2. For experimental purposes, the infestation is renewed 2 days before each observation of the effectiveness of the products, without performing a new insecticide treatment. The results are observed by performing mortality measurements (=percentage of grasshoppers killed). A remarkable persistence of action is observed.

Chortoicetes terminifera = assay: Grassland treatment, mortality of locusts; conditions: for Effectiveness (%) against the locust Chortoicetes terminifera, Persistence of action 5 DAT / Effectiveness (%) against the locust Chortoicetes terminifera, Persistence of action 10 DAT / Effectiveness (%) against the locust Chortoicetes terminifera, Persistence of action 20 DAT / Effectiveness (%) against the locust Chortoicetes terminifera, Persistence of action 30 DAT: infestation renewed 2 days before
Method: A zone of grassland infested at a rate of 40 locusts (Chortoicetes terminifera) per m2 is treated, and the infestation is renewed 2 days before each effectiveness measurement. The results are observed by performing mortality measurements (=percentage of locusts killed). A remarkable persistence of action is observed.

Schistocerca gregaria = assay: Grassland treatment, mortality of locusts; conditions: for Effectiveness (%) against the locust (Schistocerca gregaria), Persistence of action 7 DAT / Effectiveness (%) against the locust (Schistocerca gregaria), Persistence of action 14 DAT / Effectiveness (%) against the locust (Schistocerca gregaria), Persistence of action 18 DAT: infestation renewed 2 days before
Excerpt: One treats a zone of grassland infested at a rate of 40 locusts (Schistocerca gregaria) per m^2. For experimental purposes, the infestation is renewed 2 days before each effectiveness measurement. The results are observed by performing mortality measurements (=percentage of locusts killed). A remarkable persistence of action is observed.

## N#Cc1nn(-c2c(Cl)cc(C(F)(F)F)cc2Cl)c(N)c1[S+]([O-])C(F)(F)F (centres unmarked) [Product A, 1-[2,6-dichloro-4-CF3-phenyl)-3-cyano-4-CF3SO-5-NH2-pyrazole]
Melanoplus sanguinipes; 6.2 g Product A per hectare
  Effectiveness (%) against the grasshopper Melanoplus Sanquinipes, Immediate Action 1 DAT: 87%
  Effectiveness (%) against the grasshopper Melanoplus Sanquinipes, Persistence of Action 7 DAT: 98%
  Effectiveness (%) against the grasshopper Melanoplus Sanquinipes, Persistence of Action 15 DAT: 93%
  Effectiveness (%) against the grasshopper Melanoplus Sanquinipes, Persistence of Action 28 DAT: 38%
Melanoplus sanguinipes; 12.5 g Product A per hectare
  Effectiveness (%) against the grasshopper Melanoplus Sanquinipes, Immediate Action 1 DAT: 93%
  Effectiveness (%) against the grasshopper Melanoplus Sanquinipes, Persistence of Action 7 DAT: 100%
  Effectiveness (%) against the grasshopper Melanoplus Sanquinipes, Persistence of Action 15 DAT: 100%
  Effectiveness (%) against the grasshopper Melanoplus Sanquinipes, Persistence of Action 28 DAT: 69%
Melanoplus sanguinipes; 25 g Product A per hectare
  Effectiveness (%) against the grasshopper Melanoplus Sanquinipes, Immediate Action 1 DAT: 98%
  Effectiveness (%) against the grasshopper Melanoplus Sanquinipes, Persistence of Action 7 DAT: 100%
  Effectiveness (%) against the grasshopper Melanoplus Sanquinipes, Persistence of Action 15 DAT: 100%
  Effectiveness (%) against the grasshopper Melanoplus Sanquinipes, Persistence of Action 28 DAT: 93%
Chortoicetes terminifera; 3.1 g product A per hectare
  Effectiveness (%) against the locust Chortoicetes terminifera, Immediate Action 1 DAT Adults: 58%
  Effectiveness (%) against the locust Chortoicetes terminifera, Immediate Action 1 DAT Nymphs: 70%
  Effectiveness (%) against the locust Chortoicetes terminifera, Persistence of action 5 DAT: 96%
  Effectiveness (%) against the locust Chortoicetes terminifera, Persistence of action 10 DAT: 90%
  Effectiveness (%) against the locust Chortoicetes terminifera, Persistence of action 20 DAT: 74%
  Effectiveness (%) against the locust Chortoicetes terminifera, Persistence of action 30 DAT: 55%
Chortoicetes terminifera; 6.25 g product A per hectare
  Effectiveness (%) against the locust Chortoicetes terminifera, Immediate Action 1 DAT Adults: 93%
  Effectiveness (%) against the locust Chortoicetes terminifera, Immediate Action 1 DAT Nymphs: 100%
  Effectiveness (%) against the locust Chortoicetes terminifera, Persistence of action 5 DAT: 100%
  Effectiveness (%) against the locust Chortoicetes terminifera, Persistence of action 10 DAT: 98%
  Effectiveness (%) against the locust Chortoicetes terminifera, Persistence of action 20 DAT: 93%
  Effectiveness (%) against the locust Chortoicetes terminifera, Persistence of action 30 DAT: 80%
Chortoicetes terminifera; 12.5 g product A per hectare
  Effectiveness (%) against the locust Chortoicetes terminifera, Immediate Action 1 DAT Adults: 100%
  Effectiveness (%) against the locust Chortoicetes terminifera, Immediate Action 1 DAT Nymphs: 100%
  Effectiveness (%) against the locust Chortoicetes terminifera, Persistence of action 5 DAT: 100%
  Effectiveness (%) against the locust Chortoicetes terminifera, Persistence of action 10 DAT: 100%
  Effectiveness (%) against the locust Chortoicetes terminifera, Persistence of action 20 DAT: 96%
  Effectiveness (%) against the locust Chortoicetes terminifera, Persistence of action 30 DAT: 82%
Chortoicetes terminifera; 25 g product A per hectare
  Effectiveness (%) against the locust Chortoicetes terminifera, Immediate Action 1 DAT Adults: 100%
  Effectiveness (%) against the locust Chortoicetes terminifera, Immediate Action 1 DAT Nymphs: 100%
  Effectiveness (%) against the locust Chortoicetes terminifera, Persistence of action 5 DAT: 100%
  Effectiveness (%) against the locust Chortoicetes terminifera, Persistence of action 10 DAT: 100%
  Effectiveness (%) against the locust Chortoicetes terminifera, Persistence of action 20 DAT: 100%
  Effectiveness (%) against the locust Chortoicetes terminifera, Persistence of action 30 DAT: 96%
Schistocerca gregaria; 2.5 g product A per hectare
  Effectiveness (%) against the locust (Schistocerca gregaria), Immediate Action 1 DAT: 58%
  Effectiveness (%) against the locust (Schistocerca gregaria), Immediate Action 2 DAT: 72%
  Effectiveness (%) against the locust (Schistocerca gregaria), Persistence of action 7 DAT: 88%
  Effectiveness (%) against the locust (Schistocerca gregaria), Persistence of action 14 DAT: 72%
  Effectiveness (%) against the locust (Schistocerca gregaria), Persistence of action 18 DAT: 56%
Schistocerca gregaria; 5 g product A per hectare
  Effectiveness (%) against the locust (Schistocerca gregaria), Immediate Action 1 DAT: 82%
  Effectiveness (%) against the locust (Schistocerca gregaria), Immediate Action 2 DAT: 93%
  Effectiveness (%) against the locust (Schistocerca gregaria), Persistence of action 7 DAT: 100%
  Effectiveness (%) against the locust (Schistocerca gregaria), Persistence of action 14 DAT: 93%
  Effectiveness (%) against the locust (Schistocerca gregaria), Persistence of action 18 DAT: 89%
Schistocerca gregaria; 10 g product A per hectare
  Effectiveness (%) against the locust (Schistocerca gregaria), Immediate Action 1 DAT: 96%
  Effectiveness (%) against the locust (Schistocerca gregaria), Immediate Action 2 DAT: 100%
  Effectiveness (%) against the locust (Schistocerca gregaria), Persistence of action 7 DAT: 100%
  Effectiveness (%) against the locust (Schistocerca gregaria), Persistence of action 14 DAT: 98%
  Effectiveness (%) against the locust (Schistocerca gregaria), Persistence of action 18 DAT: 92%
Schistocerca gregaria; 20 g product A per hectare
  Effectiveness (%) against the locust (Schistocerca gregaria), Immediate Action 1 DAT: 100%
  Effectiveness (%) against the locust (Schistocerca gregaria), Immediate Action 2 DAT: 100%
  Effectiveness (%) against the locust (Schistocerca gregaria), Persistence of action 7 DAT: 100%
  Effectiveness (%) against the locust (Schistocerca gregaria), Persistence of action 14 DAT: 100%
  Effectiveness (%) against the locust (Schistocerca gregaria), Persistence of action 18 DAT: 98%
